Columns and labels:
[1] = target: T1, bromodomain-containing protein 4 (BRD4) (Homo sapiens, UniProt O60885); test: BRD4 AlphaScreen counterscreen assay (H4 peptide binding to BRD4); details: counter screen, Fig. 3c
T1 construct: His-tagged BRD4-BD1 was purchased from BPS Bioscience (#31042); purchased BPS Bioscience 31042
Procedure: In this study, we also developed a LANCE time-resolved fluorescence energy transfer (TR-FRET) assay as a secondary assay for our screening. The His-tagged HMGA2 and biotinylated oligomer FL814 were linked to Europium-labeled anti-6 × His antibody and APC-labeled streptavidin, respectively. A series of DNA binding studies were performed to determine the optimal conditions for the secondary Assay (Fig. S2). After these experiments, 12.5 nM of FL814 and 62.5 nM of HMGA2 were chosen for the assay, which is the same for the primary assay. The assay tolerated up to 0.25% DMSO without any significant change in signal (Fig. S2c). For a counterscreen assay to exclude those compounds that nonspecifically bind to the protein surface, an AlphaScreen assay of H4 peptide binding to bromodomain-containing protein 4 (BRD4) was adopted (Fig. S2e). Since we are looking for compounds with anti-metastasis or anti-obesity activities, compounds with high levels of cytotoxicity are undesirable. […]
Using a Labcyte Echo 555 acoustic dispenser 5 nL of DMSO were added to columns 1–4 and 45–48 of a white 1536 well plate, while 5 nL of 2 mM compounds in DMSO were added to columns 5–44. […] After an overnight incubation at room temperature the plates were read on a Perkin Elmer Envision multimode plate reader in AlphaScreen mode.

BTSC#30p = test: Growth curves (CellTiter), BTSC#30p; format: cell-based; details: up to 200 μM
Procedure: BTSC#83 and BTSC#30p and their culture conditions have been described. For growth curves, suspension cultures were mechanically disaggregated and filtered through 37 µm filters (StemCell Technologies, Vancouver, Canada) in order to obtain bona fide single-cell suspension. […] Cell growth was assayed at the indicated time using the CellTiter Assay System (Promega). The growth conditions of 8505c anaplastic thyroid carcinoma cells and mouse Embryonic Fibroblasts (MEFs) knock-out for HMGA1, HMGA2, and HMGA1/A2 double mutant have been described previously[42],[64]. P values were calculated by using two-way ANOVA followed by Sidak’s multiple comparison test.

[2] = tested on: anaplastic thyroid carcinoma cell line 8505c; test: ID2 mRNA expression in 8505c cells; format: cell-based, human; details: 200 and 400 µM
From the text: The role of HMGA1 and HMGA2 in regulating ID2 transcription was confirmed by analyzing its expression in mouse embryonic fibroblasts (MEFs) knock-out for HMGA1, HMGA2, and the A1/A2 double mutant, respectively. […] We identified two AT-rich regions, hereafter indicated as “region A” and “region B”, in the human ID2 promoter, containing the HMGA2 consensus sequence[26] (Table S2) for our ChIP experiments. Due to availability, the high proliferation rate, and the expression of HMGA proteins, the anaplastic thyroid carcinoma cell line 8505c was used.
The single-cell suspension was obtained by mechanical disaggregation of the spheres and RNA was extracted 48 h later, by using Direct-zol RNA MiniPrep (Zymo Research). One μg of RNA was retrotranscribed, by using QuantiTect® Reverse Transcription Kit (Qiagen) and qRT-PCR was performed as described. The 2^–ΔΔCt formula was used to calculate the differential gene expression.

Cc1ccc(C(=O)Nc2ccc(S(=O)(=O)O)c3cc(S(=O)(=O)O)cc(S(=O)(=O)O)c23)cc1NC(=O)c1cccc(NC(=O)Nc2cccc(C(=O)Nc3cc(C(=O)Nc4ccc(S(=O)(=O)O)c5cc(S(=O)(=O)O)cc(S(=O)(=O)O)c45)ccc3C)c2)c1 [suramin]
inhibition of H4 peptide binding to BRD4 [1]: did not inhibit H4 peptide binding to BRD4
cell growth (BTSC#30p): did not significantly affect the cell growth
mRNA expression level of ID2 [2]: significantly decreased
